The target of assay [1] is Calcium/calmodulin-dependent protein kinase type II subunit gamma (Homo sapiens) (UniProt Q13555). Put plainly: Inhibition of human CAMK2 gamma catalytic domain expressed in baculovirus assessed as substrate phosphorylation using fluorescence-labelled peptides as substrate at 420 uM after 90 mins by microfluidic peptide phosphorylation assay.
Assay [2] addresses T1, Serine/threonine-protein kinase Sgk3 (Homo sapiens) (UniProt Q96BR1).
T1 sequence (whole entry): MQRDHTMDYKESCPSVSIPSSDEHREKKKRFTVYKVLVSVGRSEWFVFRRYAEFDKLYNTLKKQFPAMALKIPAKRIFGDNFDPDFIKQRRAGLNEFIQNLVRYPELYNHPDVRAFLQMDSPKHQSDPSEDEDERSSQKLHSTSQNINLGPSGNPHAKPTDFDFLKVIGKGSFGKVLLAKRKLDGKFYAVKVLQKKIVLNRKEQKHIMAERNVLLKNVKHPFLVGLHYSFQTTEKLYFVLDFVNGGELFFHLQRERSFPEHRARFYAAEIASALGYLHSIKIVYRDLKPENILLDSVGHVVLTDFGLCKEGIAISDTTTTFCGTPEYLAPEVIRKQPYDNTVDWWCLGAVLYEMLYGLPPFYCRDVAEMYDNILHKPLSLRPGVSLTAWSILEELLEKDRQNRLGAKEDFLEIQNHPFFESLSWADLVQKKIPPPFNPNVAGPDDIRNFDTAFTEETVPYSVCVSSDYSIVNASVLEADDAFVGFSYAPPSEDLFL
The following applies: 0.1 uM.
Description: Inhibition of human full length SGK3 expressed in baculovirus assessed as substrate phosphorylation using fluorescence-labelled peptides as substrate at 0.1 uM after 90 mins by microfluidic peptide phosphorylation assay

Assay [3] addresses T2, Serine/threonine-protein kinase D1 (Homo sapiens) (UniProt Q15139).
T2 sequence (whole entry): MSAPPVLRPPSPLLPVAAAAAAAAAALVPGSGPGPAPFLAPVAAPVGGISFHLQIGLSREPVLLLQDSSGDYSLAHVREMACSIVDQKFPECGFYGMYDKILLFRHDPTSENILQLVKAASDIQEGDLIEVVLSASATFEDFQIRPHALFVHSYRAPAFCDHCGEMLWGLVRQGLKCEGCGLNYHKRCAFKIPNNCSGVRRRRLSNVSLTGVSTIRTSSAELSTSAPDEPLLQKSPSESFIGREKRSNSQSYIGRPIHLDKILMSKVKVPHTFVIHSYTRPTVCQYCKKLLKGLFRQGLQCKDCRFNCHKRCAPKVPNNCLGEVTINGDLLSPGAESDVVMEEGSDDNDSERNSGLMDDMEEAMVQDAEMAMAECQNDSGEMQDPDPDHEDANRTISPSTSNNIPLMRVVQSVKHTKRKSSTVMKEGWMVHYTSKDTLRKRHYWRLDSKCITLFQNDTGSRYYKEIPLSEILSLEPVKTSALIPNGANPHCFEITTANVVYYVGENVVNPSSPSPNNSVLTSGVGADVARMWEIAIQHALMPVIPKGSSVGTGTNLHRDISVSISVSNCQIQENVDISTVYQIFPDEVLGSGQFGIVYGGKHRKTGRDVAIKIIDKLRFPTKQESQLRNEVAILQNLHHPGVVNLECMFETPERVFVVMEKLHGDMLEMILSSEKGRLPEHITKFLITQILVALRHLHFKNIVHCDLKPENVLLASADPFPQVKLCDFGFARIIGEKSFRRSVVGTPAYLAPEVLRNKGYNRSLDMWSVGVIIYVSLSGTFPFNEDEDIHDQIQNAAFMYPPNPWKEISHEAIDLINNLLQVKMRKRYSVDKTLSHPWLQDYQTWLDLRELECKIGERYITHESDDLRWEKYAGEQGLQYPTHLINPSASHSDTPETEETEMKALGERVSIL
Briefly: Inhibition of human full length PKD1 expressed in baculovirus assessed as substrate phosphorylation using fluorescence-labelled peptides as substrate at 2 uM after 90 mins by microfluidic peptide phosphorylation assay.

For assay [4], the target named is Protein kinase C beta type (Homo sapiens) (UniProt P05771). Briefly: Inhibition of human full length PKC beta2 expressed in baculovirus assessed as substrate phosphorylation using fluorescence-labelled peptides as substrate at 2 uM after 90 mins by microfluidic peptide phosphorylation assay.
For assay [5], the target named is T3, Serine/threonine-protein kinase Sgk2 (Homo sapiens) (UniProt Q9HBY8).
T3 sequence (whole entry): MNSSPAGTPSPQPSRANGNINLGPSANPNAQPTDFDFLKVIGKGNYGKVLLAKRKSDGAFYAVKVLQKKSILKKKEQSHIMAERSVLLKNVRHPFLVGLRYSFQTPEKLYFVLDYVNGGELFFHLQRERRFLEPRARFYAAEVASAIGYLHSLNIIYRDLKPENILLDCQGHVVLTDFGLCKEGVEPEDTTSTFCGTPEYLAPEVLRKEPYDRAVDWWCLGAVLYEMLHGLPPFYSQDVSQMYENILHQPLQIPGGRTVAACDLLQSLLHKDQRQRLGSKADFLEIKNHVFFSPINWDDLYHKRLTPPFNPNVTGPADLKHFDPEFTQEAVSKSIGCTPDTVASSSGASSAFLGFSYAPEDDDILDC
Put plainly: Inhibition of human full length SGK2 expressed in baculovirus assessed as substrate phosphorylation using fluorescence-labelled peptides as substrate at 2 uM after 90 mins by microfluidic peptide phosphorylation assay.

Assay [6] deals with Calcium/calmodulin-dependent protein kinase type II subunit gamma (Homo sapiens) (UniProt Q13555). Briefly: Inhibition of human CAMK2 gamma catalytic domain expressed in baculovirus assessed as substrate phosphorylation using fluorescence-labelled peptides as substrate at 1000 uM after 90 mins by microfluidic peptide phosphorylation assay.
In assay [7] the target is Insulin receptor (Homo sapiens) (UniProt P06213). Put plainly: Inhibition of human INSR catalytic domain expressed in baculovirus assessed as substrate phosphorylation using fluorescence-labelled peptides as substrate at 1000 uM after 90 mins by microfluidic peptide phosphorylation assay.
Assay [8] deals with Protein kinase C eta type (Homo sapiens) (UniProt P24723). Briefly: Inhibition of human truncated PKC eta expressed in baculovirus assessed as substrate phosphorylation using fluorescence-labelled peptides as substrate at […] after 90 mins by microfluidic peptide phosphorylation assay.

In general, inhibition refers to the change of the read-out against control, counted positive when it falls.

Calcium/calmodulin-dependent protein kinase type II subunit gamma (Homo sapiens), sequence (Q13555 whole entry, the tested form may be a part): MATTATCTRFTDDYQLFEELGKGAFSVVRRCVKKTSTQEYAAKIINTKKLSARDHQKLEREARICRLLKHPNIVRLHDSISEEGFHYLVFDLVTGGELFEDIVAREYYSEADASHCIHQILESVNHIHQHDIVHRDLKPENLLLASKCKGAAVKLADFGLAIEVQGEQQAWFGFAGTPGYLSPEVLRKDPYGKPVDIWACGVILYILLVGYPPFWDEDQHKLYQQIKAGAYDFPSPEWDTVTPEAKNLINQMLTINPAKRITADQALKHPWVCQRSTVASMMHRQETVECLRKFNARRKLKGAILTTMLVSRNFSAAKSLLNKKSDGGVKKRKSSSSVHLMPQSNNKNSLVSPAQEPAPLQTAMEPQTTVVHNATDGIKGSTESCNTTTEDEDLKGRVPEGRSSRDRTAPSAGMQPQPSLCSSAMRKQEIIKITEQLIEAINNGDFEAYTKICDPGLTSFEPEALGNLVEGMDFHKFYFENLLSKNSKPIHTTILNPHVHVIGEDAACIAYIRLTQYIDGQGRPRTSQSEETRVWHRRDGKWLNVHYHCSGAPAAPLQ
Protein kinase C beta type (Homo sapiens), sequence (P05771 2-671 limits assumed): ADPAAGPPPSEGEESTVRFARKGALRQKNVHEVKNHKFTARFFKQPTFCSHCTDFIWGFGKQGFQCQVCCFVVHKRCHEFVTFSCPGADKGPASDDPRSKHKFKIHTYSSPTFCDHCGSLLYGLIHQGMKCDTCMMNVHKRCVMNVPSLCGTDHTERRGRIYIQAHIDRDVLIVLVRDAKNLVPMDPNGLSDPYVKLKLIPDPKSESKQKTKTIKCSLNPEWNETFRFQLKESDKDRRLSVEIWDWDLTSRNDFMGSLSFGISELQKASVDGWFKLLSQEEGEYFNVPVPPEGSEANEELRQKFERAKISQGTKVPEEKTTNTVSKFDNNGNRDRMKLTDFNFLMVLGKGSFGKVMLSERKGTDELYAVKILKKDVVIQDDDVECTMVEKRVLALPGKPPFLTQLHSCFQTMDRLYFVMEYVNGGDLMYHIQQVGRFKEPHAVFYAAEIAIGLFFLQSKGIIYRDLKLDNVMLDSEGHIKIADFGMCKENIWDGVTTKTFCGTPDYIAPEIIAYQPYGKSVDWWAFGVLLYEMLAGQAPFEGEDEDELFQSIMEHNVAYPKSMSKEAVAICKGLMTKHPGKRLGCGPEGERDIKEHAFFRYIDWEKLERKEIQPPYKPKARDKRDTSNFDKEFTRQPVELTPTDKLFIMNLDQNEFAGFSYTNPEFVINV
Protein kinase C eta type (Homo sapiens), sequence (P24723 whole entry, the tested form may be a part): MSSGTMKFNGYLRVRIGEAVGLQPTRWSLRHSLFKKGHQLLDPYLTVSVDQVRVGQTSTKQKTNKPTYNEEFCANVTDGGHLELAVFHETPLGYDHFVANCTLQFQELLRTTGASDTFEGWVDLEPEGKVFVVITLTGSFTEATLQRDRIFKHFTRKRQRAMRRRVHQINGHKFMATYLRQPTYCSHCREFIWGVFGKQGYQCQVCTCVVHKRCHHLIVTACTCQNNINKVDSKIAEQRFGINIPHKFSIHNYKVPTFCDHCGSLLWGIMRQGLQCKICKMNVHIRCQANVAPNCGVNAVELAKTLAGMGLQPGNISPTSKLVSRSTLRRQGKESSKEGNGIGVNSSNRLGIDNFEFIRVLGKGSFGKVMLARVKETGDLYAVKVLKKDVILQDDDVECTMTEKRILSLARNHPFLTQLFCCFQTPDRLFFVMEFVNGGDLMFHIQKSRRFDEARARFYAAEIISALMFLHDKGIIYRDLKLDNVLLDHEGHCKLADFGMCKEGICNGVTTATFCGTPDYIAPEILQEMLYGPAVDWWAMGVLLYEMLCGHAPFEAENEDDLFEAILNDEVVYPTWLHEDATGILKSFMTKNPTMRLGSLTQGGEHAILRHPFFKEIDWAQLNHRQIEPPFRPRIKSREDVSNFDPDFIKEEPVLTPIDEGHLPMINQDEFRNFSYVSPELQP

Consider `c1nc(N2CCOCC2)c2nc[nH]c2n1`, for which the inhibition in assay [1] stood at 42%. `C[C@H](CN(C)C)Oc1nc(Nc2cc3cccc(Cl)c3cn2)cnc1C#N` registered an inhibition in assay [2] of 0%. As for `NC1CCN(c2ncnc3[nH]ccc23)CC1`, the inhibition in assay [3] turned out to be 26%; in assay [4], 62.5%; in assay [5], 46.5%. Turning to `c1cnc2[nH]ccc2c1`, the inhibition in assay [6] was 24.5%; in assay [7], 29%. As to `COC(=O)c1cnc(Nc2cnc(C#N)cn2)cc1NCC1CCNCC1`, the inhibition in assay [8] stood at 1%.

Values taken from ChEMBL document CHEMBL3132769, “Fragment growing to retain or alter the selectivity of anchored kinase hinge-binding fragments” (Medchemcomm, 2014).
